This passage reports IC50 and activity results from patent US20230116972A1, “CD38 MODULATORS AND METHODS OF USE THEREOF” (Cytokinetics, Inc., priority 2021, published 2023).

Where two headings read alike, the source gives them in different places.

One data set deals with T1, human CD38 (Homo sapiens, UniProt P28907).
T1 sequence (P28907 1-300): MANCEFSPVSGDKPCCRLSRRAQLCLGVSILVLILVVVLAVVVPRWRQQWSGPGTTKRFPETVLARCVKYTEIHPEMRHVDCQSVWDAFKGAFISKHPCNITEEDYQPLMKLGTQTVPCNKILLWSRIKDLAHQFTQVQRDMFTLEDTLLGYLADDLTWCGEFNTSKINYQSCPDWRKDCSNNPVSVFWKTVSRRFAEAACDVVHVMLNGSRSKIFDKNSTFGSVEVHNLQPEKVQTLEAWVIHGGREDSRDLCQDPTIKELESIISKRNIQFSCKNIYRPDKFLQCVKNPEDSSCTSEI
Description: human recombinant CD38 enzyme assay (hydrolysis of NAD+). Type of data set: biochemical. The note with it: human recombinant CD38, 0.4 nM enzyme, 62.5 μM NAD+; read-out: hCD38 BioChem IC50. Summed up:
(§1)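 Steps: compound and recombinant enzyme are mixed, NAD+ is added, and the reaction runs 60 min at room temperature. An ADH/ethanol mix containing a CD38 inhibitor halts hydrolysis and forms NADH. After NaOH quench, resazurin plus diaphorase produce fluorescent resorufin, read at 540/590 nm.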

Another data set addresses T2, mouse CD38 (Mus musculus, UniProt P56528).
T2 sequence (P56528 1-304): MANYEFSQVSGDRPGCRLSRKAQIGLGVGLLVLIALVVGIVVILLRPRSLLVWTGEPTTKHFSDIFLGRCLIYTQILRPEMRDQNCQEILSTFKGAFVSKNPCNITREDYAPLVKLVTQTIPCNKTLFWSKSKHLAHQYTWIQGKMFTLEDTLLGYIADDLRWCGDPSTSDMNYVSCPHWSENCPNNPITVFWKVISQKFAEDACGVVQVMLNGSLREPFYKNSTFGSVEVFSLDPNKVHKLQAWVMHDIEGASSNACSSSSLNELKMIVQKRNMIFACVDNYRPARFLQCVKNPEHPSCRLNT
Description: mouse recombinant CD38 enzyme assay (hydrolysis of NAD+). The format is biochemical. Particulars: read-out: mCD38 BioChem IC50. Summed up:
as §1

Data set [1] has as its target T3, endogenous CD38 in HL60 cells (Homo sapiens, UniProt P28907).
T3 construct: endogenous in cells; host or cells: HL60 (leukemic cells, treated with all-trans retinoic acid)
T3 sequence (P28907 1-300): T1 sequence (P28907 1-300)
In words: cellular CD38 assay in HL60 cells (cellular NAD levels). The format is cell-based. Particulars: all-trans retinoic acid, 24 hours, read-out: hCD38 HL60 ATRA NAD Cell Diaphorase IC50. The essentials: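 Endogenous CD38 inhibition is inferred from NAD levels in HL60 cells after 24 h compound exposure at 20000 cells per well. A lytic cycling readout (0.2 U/mL diaphorase, 0.8 U/mL alcohol dehydrogenase, resazurin, FMN, ethanol, 0.2% Triton X-100, Tris/EDTA pH 8.4) ran 60 min at ambient temperature. Resorufin fluorescence was read at 540/590 nm.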

The next data set deals with T4, CYP3A4 (Homo sapiens, UniProt P08684).
T4 construct: from tissue; host or cells: human liver microsomes (pooled in the time-dependent assay)
T4 sequence (P08684 whole entry): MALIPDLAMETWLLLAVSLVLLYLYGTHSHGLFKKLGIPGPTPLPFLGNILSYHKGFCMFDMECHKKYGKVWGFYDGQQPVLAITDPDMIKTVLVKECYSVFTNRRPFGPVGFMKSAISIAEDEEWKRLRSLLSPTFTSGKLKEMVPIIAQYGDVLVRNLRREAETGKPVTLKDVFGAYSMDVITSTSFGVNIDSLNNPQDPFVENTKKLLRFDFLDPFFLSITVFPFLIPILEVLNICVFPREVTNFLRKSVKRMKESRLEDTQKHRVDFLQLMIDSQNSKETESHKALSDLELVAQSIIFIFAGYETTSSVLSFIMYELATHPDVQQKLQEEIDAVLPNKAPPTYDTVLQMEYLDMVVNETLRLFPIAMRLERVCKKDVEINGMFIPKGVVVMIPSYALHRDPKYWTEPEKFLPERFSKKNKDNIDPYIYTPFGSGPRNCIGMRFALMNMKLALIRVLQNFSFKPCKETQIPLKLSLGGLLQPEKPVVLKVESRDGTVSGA
Description: direct inhibition of CYP450 in human liver microsomes (midazolam and testosterone probes). The format is in vitro ADME. As to the method: Direct inhibition: […] A Perspective of the Pharmaceutical Research and Manufacturers of America”, Drug Metabolism and Disposition, 37 (7): 1355, 2009). For 3A4, the % activity was measured using both midazolam and testosterone as probes. Each compound at 3, 10, and 50 μM was incubated with HLM, NADPH and CYP isoenzyme specific probe substrates at 37° C. Inhibition of the probe substrate metabolism was quantified using LC/MS/MS. […] Known chemical inhibitors specific for the individual CYP isoenzymes were evaluated in parallel as positive controls and these compounds produced CYP inhibition consistent with published results (Walsky & Obach RS. “Validated assays for human cytochrome P450 activities”. Drug Metab Dispos. 32(6):647-60, 2004). Note that, in Tables 6 and 7, the “Compound No” corresponds to the compound numbers in Table 1.
A general note: Liver microsomes are a subcellular fraction often used to study metabolism.

Where [2] appears, read: midazolam probe, read-out: CYP3A4-M T0 % activity.
Where [3] appears, read: testosterone probe, read-out: CYP3A4-T T0 % activity.
[4] abbreviates: midazolam probe, read-out: CYP3A4-M T0 estimated IC50.
The mark [5] stands for this setting: testosterone probe, read-out: CYP3A4-T T0 estimated IC50.

By IC50 is commonly meant the concentration at which inhibition is half-maximal. Turning to `Cn1cncc1-c1ccnc(C(=O)Nc2ccc(C(C)(C)O)nc2)n1` [Compound 250, N-(6-(2-hydroxypropan-2-yl)pyridin-3-yl)-4-(1-methyl-1H-imidazol-5-yl)pyrimidine-2-carboxamide], the IC50 at human CD38 is 14.1 nM; on mouse CD38 it was 32 nM; in data set [1], 924 nM; on CYP3A4 (setting [4]), greater than 50000 nM; on CYP3A4 (setting [5]), greater than 50000 nM. Also, the values for the activity at 3 µM on CYP3A4 (setting [2]) and on CYP3A4 (setting [3]) were 96% and 104%, respectively. Besides, the activity at 10 µM on CYP3A4 (setting [2]) came to 89%; at CYP3A4 (setting [3]), 106%. In addition, the activity at 50 µM on CYP3A4 (setting [2]) was 73%; on CYP3A4 (setting [3]) it was 85%.

In the case of `CC(C)(O)c1ccc(NC(=O)c2nccc(-n3ccnc3)n2)cn1` [Compound 249, N-(6-(2-hydroxypropan-2-yl)pyridin-3-yl)-4-(1H-imidazol-1-yl)pyrimidine-2-carboxamide], the IC50 on human CD38 was 11.9 nM; on mouse CD38 it was 45.2 nM; in data set [1], 838 nM; on CYP3A4 (setting [4]), greater than 50000 nM; at CYP3A4 (setting [5]) it was greater than 50000 nM. Besides, the activity at 3 µM amounted to 108% on CYP3A4 (setting [2]) and 99% on CYP3A4 (setting [3]). For the same molecule, the activity at 10 µM at CYP3A4 (setting [2]) is 103%; on CYP3A4 (setting [3]) it was 100%. Moreover, the activity at 50 µM turned out to be 100% on CYP3A4 (setting [2]) and 92% on CYP3A4 (setting [3]).

As for `CO[C@H]1CC[C@H](NC(=O)c2cc(C3CCC(F)(F)CC3)nc(-c3cncn3C)n2)CC1` [Compound 289, 6-(4,4-difluorocyclohexyl)-N-((1r,4r)-4-methoxycyclohexyl)-2-(1-methyl-1H-imidazol-5-yl)pyrimidine-4-carboxamide], the IC50 at human CD38 was 7 nM; at mouse CD38, 1 nM; in data set [1], 1900 nM; on CYP3A4 (setting [4]), greater than 50000 nM; on CYP3A4 (setting [5]), greater than 50000 nM. For the same molecule, the values for the activity at 3 µM on CYP3A4 (setting [2]) and on CYP3A4 (setting [3]) were 147% and 100%, respectively. For the same molecule, the values for the activity at 10 µM on CYP3A4 (setting [2]) and at CYP3A4 (setting [3]) were 148% and 97%, respectively. Further, the activity at 50 µM on CYP3A4 (setting [2]) is 96%; at CYP3A4 (setting [3]), 72%.

Take `CO[C@H]1CC[C@H](NC(=O)c2cc(C3(C)COC3)nc(-c3cncn3C)n2)CC1` [Compound 295, N-((1r,4r)-4-methoxycyclohexyl)-2-(1-methyl-1H-imidazol-5-yl)-6-(3-methyloxetan-3-yl)pyrimidine-4-carboxamide]: the IC50 is 18.5 nM at human CD38; 3.6 nM at mouse CD38; 2310 nM in data set [1]; greater than 50000 nM on CYP3A4 (setting [4]); greater than 50000 nM at CYP3A4 (setting [5]). The values for the activity at 3 µM on CYP3A4 (setting [2]) and at CYP3A4 (setting [3]) were 92% and 103%, respectively. Moreover, the results for the activity at 10 µM on CYP3A4 (setting [2]) and on CYP3A4 (setting [3]) were 93% and 106%, respectively. In addition, the activity at 50 µM amounted to 101% at CYP3A4 (setting [2]) and 86% at CYP3A4 (setting [3]).

Regarding `CO[C@H]1CC[C@H](NC(=O)c2nccc(-c3cncn3C)n2)CC1` [Compound 148, N-((1r,4r)-4-methoxycyclohexyl)-4-(1-methyl-1H-imidazol-5-yl)pyrimidine-2-carboxamide], the IC50 stood at 70 nM on human CD38, 23 nM at mouse CD38 and 1890 nM in data set [1].

Turning to `Cn1cncc1-c1ccnc(C(=O)N[C@H]2CC[C@H](O)CC2)n1` [Compound 256, N-((1r,4r)-4-hydroxycyclohexyl)-4-(1-methyl-1H-imidazol-5-yl)pyrimidine-2-carboxamide], the IC50 at human CD38 was 68.4 nM; at mouse CD38, 22.5 nM; in data set [1], 3610 nM; at CYP3A4 (setting [4]) it was greater than 50000 nM; on CYP3A4 (setting [5]), greater than 50000 nM. For the same molecule, the activity at 3 µM was found to be 88% on CYP3A4 (setting [2]) and 96% on CYP3A4 (setting [3]). The activity at 10 µM on CYP3A4 (setting [2]) worked out at 97%; at CYP3A4 (setting [3]), 99%. Besides, the activity at 50 µM was 82% at CYP3A4 (setting [2]) and 95% at CYP3A4 (setting [3]).

On to `CO[C@H]1CC[C@H](NC(=O)c2cc(C3CCOCC3)nc(-c3cncn3C)n2)CC1` [Compound 199, N-((1r,4r)-4-methoxycyclohexyl)-2-(1-methyl-1H-imidazol-5-yl)-6-(tetrahydro-2H-pyran-4-yl)pyrimidine-4-carboxamide], for which the IC50 at human CD38 was 15.2 nM; at mouse CD38, 3.1 nM; in data set [1], 2630 nM; at CYP3A4 (setting [4]), greater than 50000 nM; on CYP3A4 (setting [5]), greater than 50000 nM. In addition, the activity at 3 µM at CYP3A4 (setting [2]) amounted to 93%; at CYP3A4 (setting [3]), 98%. In addition, the activity at 10 µM on CYP3A4 (setting [2]) is 92%; at CYP3A4 (setting [3]), 96%. The activity at 50 µM on CYP3A4 (setting [2]) and at CYP3A4 (setting [3]) was 79% throughout.
